In patent publication US8653126B2, “Imidazole derivative” (Daiichi Sankyo Company, Limited, priority 2010, dated 2014):

Biological target: T1, S1P lyase (Mus musculus, UniProt Q8R0X7)
T1 construct: The extirpated thymus was crushed; from tissue; host or cells: thymus of BALB/c mice (thymus extract)
T1 sequence (Q8R0X7 1-568): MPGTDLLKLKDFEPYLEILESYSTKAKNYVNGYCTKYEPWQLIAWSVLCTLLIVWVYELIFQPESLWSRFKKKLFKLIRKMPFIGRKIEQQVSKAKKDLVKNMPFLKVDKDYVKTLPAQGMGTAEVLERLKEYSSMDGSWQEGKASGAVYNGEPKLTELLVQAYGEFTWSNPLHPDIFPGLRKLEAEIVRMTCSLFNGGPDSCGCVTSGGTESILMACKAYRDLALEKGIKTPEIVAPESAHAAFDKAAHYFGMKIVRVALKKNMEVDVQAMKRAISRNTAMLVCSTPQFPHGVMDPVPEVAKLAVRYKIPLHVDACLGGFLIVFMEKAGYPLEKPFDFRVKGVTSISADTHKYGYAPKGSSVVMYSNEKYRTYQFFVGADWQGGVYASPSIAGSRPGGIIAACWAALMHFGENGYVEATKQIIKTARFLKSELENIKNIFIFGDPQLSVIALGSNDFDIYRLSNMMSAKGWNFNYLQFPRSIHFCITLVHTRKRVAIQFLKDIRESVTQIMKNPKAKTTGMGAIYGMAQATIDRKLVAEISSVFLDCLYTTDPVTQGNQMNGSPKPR
Assay: S1P lyase inhibitory capacity in mice (thymus extract after oral dosing)
Assay type: in vivo
Settings: BALB/c mice, single oral dose, S1P lyase activity of thymus extract with [3H]dhS1P
Method: Male BALB/c mice at age 6 weeks were purchased from Charles River Laboratories Japan Inc. Mice that had reached age 7 weeks after 1-week acclimation were used for the experiment. A group of 5 animals was used for the experiment. The necessary amount of the analyte was weighed, and subsequently suspended in a 0.5% MC solution using a mortar and a pestle. The solution to be administered was prepared so as to be 10 mL per 1 kg of body weight. The prepared compound solution was administered orally in a single dose using a stomach tube.
Dipotassium dihydrogen ethylenediaminetetraacetate (EDTA-2K, Nacalai Tesque, Inc.) was dissolved with water for injection so as to be 5% (5% EDTA-2K solution). […] At that time, the thymus was also extirpated. The obtained blood was handled under the condition of room temperature until measurement. […]
The extirpated thymus was crushed by means of either a method using zirconia beads in the presence of 500 μl, of a homogenization buffer (50 mM HEPES-NaOH (pH=7.4), 0.15 M NaCl, 10% Glycerol, 1 mM EDTA, 1 mM DTT, complete protease inhibitor cocktail (Roche, #4693132)), or a method using Potter-Elvehjem type homogenizer after mincing. […] After the proteins of the supernatant were quantified with Bradford method, the supernatant was instantly frozen with liquid nitrogen, and subsequently stored at −80° C. […]

Row | S1P lyase inhibition in mice | Structure (SMILES)
1 | inhibited S1P lyase in mice | CCOCn1cc(CO)nc1C(C)=O [Example 1, 1-(1-Ethoxymethyl-4-hydroxymethyl-1H-imidazol-2-yl)ethanone]
2 | inhibited S1P lyase in mice | COCn1cc(CO)nc1C(C)=O [Example 5, 1-(4-Hydroxymethyl-1-methoxymethyl-1H-imidazol-2-yl)ethanone]
